Measurements reported in US9296745B2, “Diacylglycerol acyltransferase 2 inhibitors” (Pfizer Inc., priority 2012, dated 2016).
Like-named read-outs stand apart in the source and are kept apart here.

Legend:
[1] = molecular target: Human DGAT2 (hDGAT2) (Homo sapiens (Human), UniProt Q96PD7); test: In vitro DGAT2 assay, IC50 determination with hDGAT2 membrane fraction; format: biochemical
Summary of the method: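 CHAPS-solubilized membrane fraction of FLAG-tagged hDGAT2 from baculovirus-infected SF9 cells (0.01 mg/mL) in 100 mM Hepes-NaOH pH 7.4, 20 mM MgCl2, 200 nM methyl arachidonyl fluorophosphonate; compounds pre-incubated 20 min with 0.04% BSA. Reaction 40 min at room temperature, stopped with H3PO4. [^14C]tridecanoylglycerol in organic phase counted; 11-point geometric mean IC50.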

[2] = molecular target: DGAT2 (Homo sapiens (Human), UniProt Q96PD7); test: IC50 determination for DGAT2 inhibitors in human hepatocytes ([1,3-14C]-glycerol incorporation into lipids); format: cell-based; details: average IC50; cryopreserved human hepatocytes, selective DGAT1 inhibitor (3 μM) in all wells, 3 hour incubation with [1,3-14C]-glycerol; read-out: IC50 (nM) in primary human hepatocyte
DGAT2, sequence (Q96PD7 whole entry): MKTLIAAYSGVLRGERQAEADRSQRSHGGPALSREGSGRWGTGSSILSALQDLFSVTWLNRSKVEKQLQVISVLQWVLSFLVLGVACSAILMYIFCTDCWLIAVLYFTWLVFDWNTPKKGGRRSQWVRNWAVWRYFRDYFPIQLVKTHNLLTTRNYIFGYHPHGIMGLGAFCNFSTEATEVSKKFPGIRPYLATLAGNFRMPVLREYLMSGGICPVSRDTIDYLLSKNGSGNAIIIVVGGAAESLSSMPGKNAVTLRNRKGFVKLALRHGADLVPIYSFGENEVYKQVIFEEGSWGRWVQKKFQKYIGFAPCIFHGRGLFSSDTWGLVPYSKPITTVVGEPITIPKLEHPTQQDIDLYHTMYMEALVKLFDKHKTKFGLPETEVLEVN
Experimental: For evaluation of the effects of DGAT2 inhibitors in a cell-based setting, cryopreserved human hepatocytes (Lot QOC, Celsis, Chicago, Ill.) were thawed and plated onto type I collagen-coated plates according to the manufacturer's instructions. After 24 hours overnight recovery period, the cells were overlayed with media containing 250 μg/ml Matrigel (BD Biosciences, San Jose, Calif.). The following day, media was aspirated and replaced with serum-free Williams Media E (Life Technologies, Grand Island, N.Y.) containing 400 μM sodium dodecanoate (Sigma-Aldrich, St. Louis, Mo.). Forty minutes later, DGAT2 inhibitors (prepared as 100× stocks in 25% DMSO, 75% Williams' Media E) were added to the desired final concentration. […] After a 20 minute preincubation, 0.2 μCi [1,3-^14C]-glycerol (American Radio Chemicals, St. Louis, Mo.) was added to each well and mixed by gentle pipetting prior to a 3 hour incubation. At this point, media was aspirated and the cells were lysed in isopropyl alcohol:tetrahydrofuran (9:1) prior to centrifugation at 3000 rpm for 5 minutes. Radiolabeled lipids were resolved using a 2-solvent system by thin layer chromatography using standard technique (solvent 1 contained ethyl acetate: isopropyl alcohol: chloroform:methanol:0.25% potassium chloride in water (100:100:100:40.2:36.1, v/v/v/v) and solvent 2 contained hexane: diethyl ether: acetic acid (70:27:3, v/v/v)). After separation, radiolabeled lipids were visualized using a Molecular Dynamics' PhosphorImager system. The half maximal inhibitory concentrations (IC50 values) were determined using Graph Pad Prism (GraphPad Software, Inc., La Jolla, Calif.).

[3] = geometric mean, background for complete inhibition of DGAT2 obtained with 50 μM (1R,2R)-2-({3′-Fluoro-4′-[(6-fluoro-1,3-benzothiazol-2-yl)amino]-1,1′-biphenyl-4-yl}carbonyl)cyclopentanecarboxylic acid, read-out: DGAT2 IC50
[4] = geometric mean, background for complete inhibition of DGAT2 obtained with Example 196-A instead of the cyclopentanecarboxylic acid reference, read-out: DGAT2 IC50 (nM), values in the parentheses

Human DGAT2 (hDGAT2), sequence (Q96PD7 whole entry): as above

| IC50 [1, 3] [nM] | IC50 [2] [nM] | IC50 [1, 4] [nM] | Compound | IC50 ([1]; read-out: DGAT2 IC50) [nM] |
| --- | --- | --- | --- | --- |
| 363 | 86.8 |  | CC(c1nc2ccc(N3CCC[C@@H](C(=O)N4CCCC4)C3)nc2[nH]1)n1cccn1 (stereo partly drawn) [Example 58, (R)-(1-(2-(1-(1H-Pyrazol-1-yl)ethyl)-3H-imidazo[4,5-b]pyridin-5-yl)piperidin-3-yl)(pyrrolidin-1-yl)methanone] |  |
| 96.9 | 7.9 | 85 | O=C([C@@H]1CCCN(c2ccc3nc(C4(n5cc(F)cn5)CC4)[nH]c3n2)C1)N1CCCC1 [Example 73, (R)-(1-(2-(1-(4-Fluoro-1H-pyrazol-1-yl)cyclopropyl)-3H-imidazo[4,5-b]pyridin-5-yl)piperidin-3-yl)(pyrrolidin-1-yl)methanone] |  |
| 227 | 25.1 |  | N#Cc1cnn(C2(c3nc4ccc(N5CCC[C@@H](C(=O)N6CCCC6)C5)nc4[nH]3)CC2)c1 [Example 76, (R)-1-(1-(5-(3-(Pyrrolidine-1-carbonyl)piperidin-1-yl)-3H-imidazo[4,5-b]pyridin-2-yl)cyclopropyl)-1H-pyrazole-4-carbonitrile] |  |
| 83.8 | 9.4 |  | O=C([C@@H]1CCCN(c2ccc3nc(C4(n5cc(C(F)(F)F)cn5)CC4)[nH]c3n2)C1)N1CCCC1 [Example 78, (R)-Pyrrolidin-1-yl(1-(2-(1-(4-(trifluoromethyl)-1H-pyrazoL-1-yl)cyclopropyl)-3H-imidazo[4,5-b]pyridin-5-yl)piperidin-3-yl)methanone] |  |
| 204 | 47.7 |  | O=C([C@@H]1CCCN(c2ccc3nc(C4(c5cccnc5)CC4)[nH]c3n2)C1)N1CCCC1 [Example 81, (R)-(1-(2-(1-(Pyridin-3-yl)cyclopropyl-1)-3H-imidazo[4,5-b]pyridin-5-yl)piperidin-3-yl)(pyrrolidin-1-yl)methanone] |  |
| 165 | 15.8 |  | O=C([C@@H]1CCCN(c2ccc3nc(C4(c5ccccn5)CC4)[nH]c3n2)C1)N1CCCC1 [Example 82, (R)-(1-(2-(1-(Pyridin-2-yl)cyclopropyl)-3H-imidazo[4,5-b]pyridin-5-yl)piperidin-3-yl)(pyrrolidin-1-yl)methanone] |  |
| 18.2 | 15.9 |  | O=C([C@@H]1CCCN(c2ccc3nc(-c4ccnc(C5CC5)n4)[nH]c3n2)C1)N1CCCC1 [Example 95, (R)-(1-(2-(2-Cyclopropylpyrimidin-4-yl)-3H-imidazo[4,5-b]pyridin-5-yl)piperidin-3-yl)(pyrrolidin-1-yl)methanone] |  |
| 28.7 | 2.8 | 26.2 | O=C([C@@H]1CCCN(c2ncc3nc(C4(n5cc(Cl)cn5)CC4)[nH]c3n2)C1)N1CCCC1 [Example 108, (R)-(1-(8-(1-(4-Chloro-1H-pyrazol-1-yl)cyclopropyl)-9H-purin-2-yl)piperidin-3-yl)(pyrrolidin-1-yl)methanone] |  |
| 354 | 10.7 | 301 | O=C([C@H]1CN(c2ccc3nc(C4(n5cc(Cl)cn5)CC4)[nH]c3n2)CCO1)N1CCCC1 [Example 141, (R)-(4-(2-(1-(4-Chloro-1H-pyrazol-1-yl)cyclopropyl)-3H-imidazo[4,5-b]pyridin-5-yl)morpholin-2-yl)(pyrrolidin-1-yl)methanone] |  |
| 91.3 | 71.7 |  | O=C([C@H]1CN(c2ccc3nc(-c4cccc(C(F)F)n4)[nH]c3n2)CCO1)N1CCCC1 [Example 175, (R)-(4-(2-(6-(Difluoromethyl)pyridin-2-yl)-3H-imidazo[4,5-b]pyridin-5-yl)morpholin-2-yl)(pyrrolidin-1-yl)methanone] |  |
| 14.5 | 4.6 | 20.6 | C[C@@H](c1nc2ccc(N3CCC[C@@H](C(=O)N4CCCC4)C3)nc2[nH]1)n1cc(Cl)cn1 [Example 196-A, ((R)-1-(2-((S)-1-(4-Chloro-1H-pyrazol-1-yl)ethyl)-3H-imidazo[4,5-b]pyridin-5-yl)piperidin-3-yl)(pyrrolidin-1-yl)methanone] |  |
| 33.7 | 5.5 |  | C[C@H](c1nc2ccc(N3CCC[C@@H](C(=O)N4CCCC4)C3)nc2[nH]1)n1cc(Cl)cn1 [Example 197, ((R)-1-(2-((R)-1-(4-chloro-1H-pyrazol-1-yl)ethyl)-3H-imidazo[4,5-b]pyridin-5-yl)piperidin-3-yl)(pyrrolidin-1-yl)methanone] |  |
| 43 | 7.8 |  | C[C@@H](c1nc2cnc(N3CCC[C@@H](C(=O)N4CCCC4)C3)nc2[nH]1)n1cc(Cl)cn1 [Example 198, ((R)-1-(8-((S)-1-(4-Chloro-1H-pyrazol-1-yl)ethyl)-9H-purin-2-yl)piperidin-3-yl)(pyrrolidin-1-yl)methanone] |  |
| 18.9 | 2.5 | 32.9 | C[C@H](c1nc2cnc(N3CCC[C@@H](C(=O)N4CCCC4)C3)nc2[nH]1)n1cc(Cl)cn1 [Example 199, ((R)-1-(8-((R)-1-(4-chloro-1H-pyrazol-1-yl)ethyl)-9H-purin-2-yl)piperidin-3-yl)(pyrrolidin-1-yl)methanone] |  |
| 101 | 8.9 |  | O=C([C@@H]1CCCN(c2ncc3nc(C4(n5cc(F)cn5)CC4)[nH]c3n2)C1)N1CCCC1 [Example 209, (R)-(1-(8-(1-(4-Fluoro-1H-pyrazol-1-yl)cyclopropyl)-9H-purin-2-yl)piperidin-3-yl)(pyrrolidin-1-yl)methanone] |  |
| 161 |  |  | O=C([C@H]1CN(c2ncc3nc(C4(n5cc(Cl)cn5)CC4)[nH]c3n2)CCO1)N1CCCC1 [Example 213, (R)-(4-(8-(1-(4-Chloro-1H-pyrazol-1-yl)cyclopropyl)-9H-purin-2-yl)morpholin-2-yl)(pyrrolidin-1-yl)methanone] |  |
| 396 |  |  | O=C([C@@H]1CCCN(c2ccc3nc(C4(n5nccn5)CC4)[nH]c3n2)C1)N1CCCC1 [Example 214, (R)-(1-(2-(1-(2H-1,2,3-Triazol-2-yl)cyclopropyl)-3H-imidazo[4,5-b]pyridin-5-yl)piperidin-3-yl)(pyrrolidin-1-yl)methanone] |  |
| 483 |  |  | O=C([C@@H]1CCCN(c2ccc3nc(C4(n5ccnc5)CC4)[nH]c3n2)C1)N1CCCC1 [Example 215, (R)-(1-(2-(1-(1H-Imidazol-1-yl)cyclopropyl)-3H-imidazo[4,5-b]pyridin-5-yl)piperidin-3-yl)(pyrrolidin-1-yl)methanone] |  |
| 9200 |  |  | C[C@H]1CC[C@@H](C(=O)N2CCCC2)CN1c1ccc2nc(C3(n4cc(Cl)cn4)CC3)[nH]c2n1 [Example 216, ((3R,6S)-1-(2-(1-(4-Chloro-1H-pyrazol-1-yl)cyclopropyl)-3H-imidazo[4,5-b]pyridin-5-yl)-6-methylpiperidin-3-yl)(pyrrolidin-1-yl)methanone] |  |
|  |  |  | C[C@@H]1CC[C@H](C(=O)N2CCCC2)CN1c1ccc2nc(C3(n4cc(Cl)cn4)CC3)[nH]c2n1 [Example 217, ((3S,6R)-1-(2-(1-(4-chloro-1H-pyrazol-1-yl)cyclopropyl)-3H-imidazo[4,5-b]pyridin-5-yl)-6-methylpiperidin-3-yl)(pyrrolidin-1-yl)methanone] | 131 |
| 270 |  |  | O=C([C@@H]1CCCN(c2ccc3nc(-c4ccnc(C5CC5)n4)[nH]c3n2)C1)N1CCC1 [Example 220, (R)-Azetidin-1-yl(1-(2-(2-cyclopropylpyrimidin-4-yl)-3H-imidazo[4,5-b]pyridin-5-yl)piperidin-3-yl)methanone] |  |
| 290 |  |  | CN(CC1CC1)C(=O)[C@@H]1CCCN(c2ccc3nc(-c4ccnc(C5CC5)n4)[nH]c3n2)C1 [Example 221, (R)—N-(Cyclopropylmethyl)-1-(2-(2-cyclopropylpyrimidin-4-yl)-3H-imidazo[4,5-b]pyridin-5-yl)-N-methylpiperidine-3-carboxamide] |  |
| 531 |  |  | O=C([C@@H]1CCCN(c2ccc3nc(C4(c5cccnn5)CC4)[nH]c3n2)C1)N1CCCC1 [Example 222, (R)-(1-(2-(1-(Pyridazin-3-yl)cyclopropyl)-3H-imidazo[4,5-b]pyridin-5-yl)piperidin-3-yl)(pyrrolidin-1-yl)methanone] |  |
| 1370 |  |  | Cn1ncnc1C1(c2nc3ccc(N4CCC[C@@H](C(=O)N5CCCC5)C4)nc3[nH]2)CC1 [Example 223, (R)-(1-(2-(1-(1-Methyl-1H-1,2,4-triazol-5-yl)cyclopropyl)-3H-imidazo[4,5-b]pyridin-5-yl)piperidin-3-yl)(pyrrolidin-1-yl)methanone] |  |
|  |  |  | [(R)-1-{2-[1-(4-Chloro-1H-pyrazol-1-yl)cyclopropyl]-3H-imidazo[4,5-b]pyridin-5-yl}(2,2,6,6-^2H4)piperidin-3-yl](pyrrolidin-1-yl)methanone [Example 190] | 35.9 |
